Measured values as given in patent US6630492B1, “Lymphocyte function antigen-1 antagonists” (Novartis AG, priority 1997, dated 2003).
Read-outs that look alike come from different tables or passages of the source.

Columns and labels:
[1] = biological target: T1, LFA-1/ICAM-1 interactions (Homo sapiens, UniProt P20701); test: Jurkat or Hut 78 cell adhesion to ICAM-1; format: cell-based
T1 construct: host or cells: Jurkat or Hut 78 cells
Experimental: Jurkat or Hut 78 cells obtained from ATCC and cultured in RPMI-1640 supplemented with 10% FCS, L-glutamine, non essential amino acids and 0.05 mM 2-mercaptoethanol, are centrifuged, washed once in PBS, and resuspended at 0.5×10^6 cells/ml in binding buffer (1.5% BSA, 5 mM glucose, 2 mM MgCl2, […] MnCl2 in TBS, pH 7) containing 5 μg/ml BCECF-AM (Molecular Probes). The cells are incubated at 37° C. for 30-45 min. in the dark. Then the cells are centrifuged and resuspended in binding buffer by pipetting and immediately used for experiment.
Flat well microtiter plates (NUNC Maxisorp) are coated with 1 μg/ml goat anti-mouse Cκ (Bioreba, South.Biot.) in carbonate buffer (15 mM Na2CO3, 35 mM NaHCO3, pH8.0) 2 hours at 37° C. The plates are emptied and blocked with 1.5% BSA and 0.5% Tween-20 in carbonate buffer for 90 min. at 37° C. The plates are emptied and washed once in TBS containing, 1.5% BSA. Baculovirus derived ICAM-1 mouse Cκ fusion protein (100 ng/ml in TBS/1.5% BSA) is added to the wells. The plates are incubated for 90 min. at 37° C. After three washes with TBS/1.5% BSA, the compound to be tested is diluted in binding buffer (as above but free from BSA and glucose) and added to the wells. Then 100 000 Jurkat or Hut 78 cells/well are added and allowed to adhere for 30 min. at 37° C. Adherent cells are separated from non-adherent cells by 2-4 washes using binding buffer. Adherent cells are quantified with a fluorescence ELISA reader CytofluorII with the filters set at 485 nm and 530 nm emission.

[2] = tested on: thioglycollate induced neutrophil migration; test: Murine thioglycollate induced peritonitis; format: in vivo; settings: s.c., mice
Experimental: Thioglycollate is injected i.p. to mice and immediately thereafter the compound to be tested is given s.c. The mice are killed after 4 hours, the peritoneal cavity lavaged and the total number of neutrophils in the lavage fluid is determined.
In this assay, the compounds of the invention, e.g. mevinolins inhibit thioglycollate induced neutrophil migration when administered s.c. at a dose of from 0.001-50 mg/kg.

LFA-1 I-domain = biological target: T2, LFA-1 I-domain (Homo sapiens, UniProt P20701); test: X-ray analysis of the complex of LFA-1 I-domain with mevinolin; format: binding
T2 construct: amino acid residues 128 to 309 of the α-chain of LFA-1 which corresponds to the I-domain
T2 sequence (P20701 153-334): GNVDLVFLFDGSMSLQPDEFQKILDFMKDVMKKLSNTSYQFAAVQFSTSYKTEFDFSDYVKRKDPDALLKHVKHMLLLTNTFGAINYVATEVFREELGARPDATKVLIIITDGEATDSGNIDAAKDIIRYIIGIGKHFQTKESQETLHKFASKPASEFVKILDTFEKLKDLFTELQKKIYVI
Experimental: The complex, LFA-1 I-domain/mevinolin, is prepared by adding mevinolin (100 mM solution in DMSO) to the protein solution (12.7 mg/ml, 100 mM MgSO4), followed by crystallization. The structure is solved by molecular replacement (using the coordinates of apo LFA-1 I domain, A. Qu & D. Leahy, above) and has been refined to a R factor of 19.4% (Rfree=25.9%) using X-ray amplitudes in the resolution range 8 Å-2.6 Å. The final model contains 2×182 amino acids (amino acid residues 128 to 309 of the α-chain of LFA-1 which corresponds to the I-domain), 2 mevinolin molecules and a total of 86 water molecules.

[3] = Jurkat cells, adhesion to ICAM-1, read-out: IC50 in the Jurkat Cell Assay

T1 sequence (P20701 26-1170): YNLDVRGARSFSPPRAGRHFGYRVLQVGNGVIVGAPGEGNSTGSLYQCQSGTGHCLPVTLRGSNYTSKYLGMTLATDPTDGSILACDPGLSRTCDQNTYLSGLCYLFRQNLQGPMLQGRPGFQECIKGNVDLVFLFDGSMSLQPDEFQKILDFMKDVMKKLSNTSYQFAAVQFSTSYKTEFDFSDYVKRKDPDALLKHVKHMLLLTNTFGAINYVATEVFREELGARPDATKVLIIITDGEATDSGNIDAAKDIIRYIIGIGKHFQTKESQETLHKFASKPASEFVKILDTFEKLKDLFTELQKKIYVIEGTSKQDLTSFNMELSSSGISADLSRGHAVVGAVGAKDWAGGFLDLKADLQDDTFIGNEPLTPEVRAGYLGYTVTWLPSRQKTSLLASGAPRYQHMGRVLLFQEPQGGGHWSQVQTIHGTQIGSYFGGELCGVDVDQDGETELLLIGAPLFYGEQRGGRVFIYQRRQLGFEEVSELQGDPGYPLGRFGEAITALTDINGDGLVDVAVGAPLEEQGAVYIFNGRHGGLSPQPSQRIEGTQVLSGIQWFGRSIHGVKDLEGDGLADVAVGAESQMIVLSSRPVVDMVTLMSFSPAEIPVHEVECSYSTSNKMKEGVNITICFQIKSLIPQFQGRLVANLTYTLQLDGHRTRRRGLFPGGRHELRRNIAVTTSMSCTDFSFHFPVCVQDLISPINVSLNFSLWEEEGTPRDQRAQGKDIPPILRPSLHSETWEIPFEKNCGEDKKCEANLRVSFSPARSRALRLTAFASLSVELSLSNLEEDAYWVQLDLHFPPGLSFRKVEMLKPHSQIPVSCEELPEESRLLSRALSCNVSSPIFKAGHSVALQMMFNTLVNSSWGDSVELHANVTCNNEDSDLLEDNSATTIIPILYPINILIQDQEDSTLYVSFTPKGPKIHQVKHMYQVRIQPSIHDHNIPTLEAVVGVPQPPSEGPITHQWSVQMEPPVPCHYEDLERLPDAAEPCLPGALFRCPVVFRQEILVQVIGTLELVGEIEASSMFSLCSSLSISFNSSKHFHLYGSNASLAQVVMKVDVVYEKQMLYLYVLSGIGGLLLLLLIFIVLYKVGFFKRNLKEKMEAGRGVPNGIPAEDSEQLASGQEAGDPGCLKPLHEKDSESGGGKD
T1 sequence (P05107 23-769 partner): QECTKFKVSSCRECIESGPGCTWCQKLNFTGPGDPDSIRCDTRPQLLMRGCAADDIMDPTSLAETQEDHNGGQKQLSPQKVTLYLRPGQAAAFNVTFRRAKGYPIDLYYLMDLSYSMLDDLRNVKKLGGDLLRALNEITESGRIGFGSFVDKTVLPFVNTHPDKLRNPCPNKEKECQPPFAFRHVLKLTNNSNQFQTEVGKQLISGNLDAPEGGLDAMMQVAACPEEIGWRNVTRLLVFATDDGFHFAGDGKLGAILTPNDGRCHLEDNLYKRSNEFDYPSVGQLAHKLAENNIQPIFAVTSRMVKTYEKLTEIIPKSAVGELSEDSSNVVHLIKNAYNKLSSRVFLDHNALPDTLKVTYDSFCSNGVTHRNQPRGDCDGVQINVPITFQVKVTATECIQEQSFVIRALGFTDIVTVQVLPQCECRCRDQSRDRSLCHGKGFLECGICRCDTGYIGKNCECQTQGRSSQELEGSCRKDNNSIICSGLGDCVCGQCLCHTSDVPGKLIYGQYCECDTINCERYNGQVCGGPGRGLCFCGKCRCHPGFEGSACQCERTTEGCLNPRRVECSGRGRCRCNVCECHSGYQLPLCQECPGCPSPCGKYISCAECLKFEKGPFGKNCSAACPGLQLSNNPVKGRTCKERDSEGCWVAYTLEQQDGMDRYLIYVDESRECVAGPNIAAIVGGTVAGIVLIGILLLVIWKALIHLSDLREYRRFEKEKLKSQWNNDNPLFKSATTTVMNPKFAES

## CCC(C)C(=O)OC1CC(C)C=C2C=CC(C)C(CCC(O)CC(CC(=O)NCCO)NCCO)C21 (stereo not shown) [Example 6, 2-Methyl-butyric Acid 8-[3-Hydroxy-5-(2-hydroxy-ethylamino)-6-(2-hydroxy-ethylcarbamoyl)-hexyl]-3,7-dimethyl-1,2,3,7,8,8a-hexahydro-naphthalen-1-yl Ester]
[1]; [3]
  IC50: 4000 nM
[2]; 1 mg/kg
  inhibition of neutrophil migration: fully inhibit

## CC[C@H](C)C(=O)O[C@H]1C[C@@H](C)C=C2C=C[C@H](C)[C@H](CCC(O)CC(O)CC(=O)NCc3ccccc3OC)[C@H]21 (stereo partly shown) [Example 15]
[1]; [3]
  IC50: 2200 nM

## CC[C@H](C)C(=O)O[C@H]1C[C@@H](C)C=C2C=C[C@H](C)[C@H](CCC(O)CC(O)CC(=O)N3CCC4(CC3)OCCO4)[C@H]21 (stereo partly shown) [Example 33]
[1]
  IC50: 1200 nM
[2]; 0.1 mg/kg
  inhibition of neutrophil migration: fully inhibit

## CC[C@H](C)C(=O)O[C@H]1C[C@@H](C)C=C2C=C[C@H](C)[C@H](CC[C@@H]3C[C@@H](O)CC(=O)O3)[C@H]21 [mevinolin, Mevinolin]
LFA-1 I-domain; X-ray analysis of the complex
  binding to the MIDAS-site: does not bind to the MIDAS-site
LFA-1 I-domain; between the C-terminal helix α7 and one side of the β-sheet
  binding to the LFA-1 I-domain (south pole pocket): binds to the LFA-1 I-domain
